Laboratory results as given in patent US20240050428A1 (Cullgen (Shanghai), Inc., priority 2020, published 2024).
Like-named read-outs stand apart in the source and are kept apart here.

Columns and labels:
MV4;11 cells = experiment: Cell viability assay (CellTiter-Glo) in MV4;11 cells, alone or with gilteritinib; format: cell-based; conditions: Homo sapiens, MV4-11, 72 h, MV4;11 cells, CellTiter-Glo, read-out: MV4
MOLM-13 cells = experiment: Cell viability assay (CellTiter-Glo) in MOLM-13 cells, alone or with gilteritinib; format: cell-based; conditions: Homo sapiens, MOLM-13, 72 h, MOLM-13 cells, CellTiter-Glo
[1] = compound alone (without gilteritinib), three days, 11 IC50
[2] = with gilteritinib 10 nM, three days, 11 IC50 gilteritinib
[3] = compound alone (without gilteritinib), three days, read-out: MOLM-13 IC50
[4] = with gilteritinib 20 nM, three days, read-out: MOLM-13 IC50 gilteritinib
[5] = without gilteritinib, 3 days, 11 IC50
[6] = with 20 nM gilteritinib, 3 days, read-out: MOLM-13 IC50 gilteritinib
[7] = without gilteritinib, 3 days, read-out: MOLM-13 IC50
[8] = with 10 nM gilteritinib, 3 days, 11 IC50 gilteritinib

Row | SMILES | IC50 (MV4;11 cells; [1]) | IC50 (MV4;11 cells; [2]) | IC50 (MOLM-13 cells; [3]) | IC50 (MOLM-13 cells; [4]) | IC50 (MV4;11 cells; [5]) | IC50 (MOLM-13 cells; [6]) | IC50 (MOLM-13 cells; [7]) | IC50 (MV4;11 cells; [8])
1 | O=C1CCC(N2C(=O)c3ccc(NCCCCCC(=O)N4CCC(n5cc(-c6ccccn6)cn5)CC4)cc3C2=O)C(=O)N1 (stereo not drawn) [GS-053, 2-(2,6-Dioxopiperidin-3-yl)-5-((6-oxo-6-(4-(4-(pyridin-2-yl)-1H-pyrazol-1-yl)piperidin-1-yl)hexyl)amino)isoindoline-1,3-dione] | 10 to 100 nM | < 10 nM | 100 to 1000 nM | < 10 nM | – | – | – | –
2 | O=C(CCC(F)(F)C(=O)N1CCC(n2cc(-c3cnc4cccc(Br)c4n3)cn2)CC1)NCc1ccc2c(c1)CN(C1CCC(=O)NC1=O)C2=O (stereo not drawn) [GS-054, 5-(4-(4-(8-Bromoquinoxalin-2-yl)-1H-pyrazol-1-yl)piperidin-1-yl)-N-((2-(2,6-dioxopiperidin-3-yl)-1-oxoisoindolin-5-yl)methyl)-4,4-difluoro-5-oxopentanamide] | < 10 nM | < 10 nM | 10 to 100 nM | < 10 nM | – | – | – | –
3 | CN(Cc1ccc2c(c1)CN(C1CCC(=O)NC1=O)C2=O)C(=O)CCCC(=O)N1CCC(n2cc(-c3cnc4cccc(Br)c4n3)cn2)CC1 (stereo not drawn) [GS-058, 5-(4-(4-(8-Bromoquinoxalin-2-yl)-1H-pyrazol-1-yl)piperidin-1-yl)-N-((2-(2,6-dioxopiperidin-3-yl)-1-oxoisoindolin-5-yl)methyl)-N-methyl-5-oxopentanamide] | > 1000 nM | 100 to 1000 nM | 100 to 1000 nM | > 1000 nM | – | – | – | –
4 | O=C1CCC(N2C(=O)c3ccc(NCCCCCC(=O)N4CCC(c5cnc6cccc(Br)c6n5)CC4)cc3C2=O)C(=O)N1 (stereo not drawn) [GS-060, 5-((6-(4-(8-Bromoquinoxalin-2-yl)piperidin-1-yl)-6-oxohexyl)amino)-2-(2,6-dioxopiperidin-3-yl)isoindoline-1,3-dione] | < 10 nM | < 10 nM | < 10 nM | < 10 nM | < 1 nM | 0.06 nM | 3.7 nM | –
5 | O=C1CCC(N2C(=O)c3ccc(NCCCCCC(=O)c4ccc(-n5cccn5)cc4)cc3C2=O)C(=O)N1 (stereo not drawn) [GS-061, 5-((6-(4-(1H-Pyrazol-1-yl)phenyl)-6-oxohexyl)amino)-2-(2,6-dioxopiperidin-3-yl)isoindoline-1,3-dione] | > 1000 nM | 100 to 1000 nM | > 1000 nM | 100 to 1000 nM | – | – | – | –
6 | O=C1CCC(N2C(=O)c3ccc(NCCCCCC(=O)N4CC(n5cc(-c6cnc7cccc(Br)c7n6)cn5)C4)cc3C2=O)C(=O)N1 (stereo not drawn) [GS-062, 5-((6-(3-(4-(8-Bromoquinoxalin-2-yl)-1H-pyrazol-1-yl)azetidin-1-yl)-6-oxohexyl)amino)-2-(2,6-dioxopiperidin-3-yl)isoindoline-1,3-dione] | – | – | – | – | 9410 nM | 72 nM | > 10000 nM | 1920 nM
7 | O=C1CCC(N2C(=O)c3ccc(NCCCCCC(=O)N4CCC(n5cc(N6CCC6)cn5)CC4)cc3C2=O)C(=O)N1 (stereo not drawn) [GS-063, 5-((6-(4-(4-(Azetidin-1-yl)-1H-pyrazol-1-yl)piperidin-1-yl)-6-oxohexyl)amino)-2-(2,6-dioxopiperidin-3-yl)isoindoline-1,3-dione] | – | – | – | – | > 10000 nM | 3680 nM | > 10000 nM | 8550 nM
8 | O=C1CCC(N2C(=O)c3ccc(NCCCCCC(=O)N4CCC(n5cc(C6CC6)cn5)CC4)cc3C2=O)C(=O)N1 (stereo not drawn) [GS-064, 5-((6-(4-(4-Cyclopropyl-1H-pyrazol-1-yl)piperidin-1-yl)-6-oxohexyl)amino)-2-(2,6-dioxopiperidin-3-yl)isoindoline-1,3-dione] | – | – | – | – | 349 nM | 600 nM | 520 nM | 27 nM
9 | Cc1cccc(-c2ccn([C@H]3C[C@H](CNc4ccc5c(c4)C(=O)N(C4CCC(=O)NC4=O)C5=O)C3)n2)n1 (stereo partly drawn) [GS-065, 2-(2,6-Dioxopiperidin-3-yl)-5-(((trans-3-(3-(6-methylpyridin-2-yl)-1H-pyrazol-1-yl)cyclobutyl)methyl)amino)isoindoline-1,3-dione] | > 1000 nM | > 1000 nM | > 1000 nM | > 1000 nM | – | – | – | –
10 | O=C1CCC(N2C(=O)c3ccc(NC[C@H]4C[C@H](n5cc(-c6cnc7cc(N8CCOCC8)ccc7n6)c(C6CC6)n5)C4)cc3C2=O)C(=O)N1 (stereo partly drawn) [GS-066, 5-(((trans-3-(3-Cyclopropyl-4-(6-morpholinoquinoxalin-2-yl)-1H-pyrazol-1-yl)cyclobutyl)methyl)amino)-2-(2,6-dioxopiperidin-3-yl)isoindoline-1,3-dione] | 10 to 100 nM | < 10 nM | 10 to 100 nM | < 10 nM | – | – | – | –
11 | O=C1CCC(N2C(=O)c3ccc(NC[C@H]4C[C@H](n5cc(-c6cnc7ccc(CN8CCOCC8)cc7n6)c(C6CC6)n5)C4)cc3C2=O)C(=O)N1 (stereo partly drawn) [GS-067, 5-(((trans-3-(3-Cyclopropyl-4-(7-(morpholinomethyl)quinoxalin-2-yl)-1H-pyrazol-1-yl)cyclobutyl)methyl)amino)-2-(2,6-dioxopiperidin-3-yl)isoindoline-1,3-dione] | 10 to 100 nM | 10 to 100 nM | > 1000 nM | 10 to 100 nM | – | – | – | –
12 | O=C1CCC(N2C(=O)c3ccc(NC[C@H]4C[C@H](n5cc(-c6cnc7ccc(CN8CCNCC8)cc7n6)c(C6CC6)n5)C4)cc3C2=O)C(=O)N1 (stereo partly drawn) [GS-068, 5-(((trans-3-(3-cyclopropyl-4-(7-(piperazin-1-ylmethyl)quinoxalin-2-yl)-1H-pyrazol-1-yl)cyclobutyl)methyl)amino)-2-(2,6-dioxopiperidin-3-yl)isoindoline-1,3-dione] | 10 to 100 nM | < 10 nM | > 1000 nM | 10 to 100 nM | – | – | – | –
13 | CCc1cccc(-c2cn([C@H]3C[C@H](CNc4ccc5c(c4)C(=O)N(C4CCC(=O)NC4=O)C5=O)C3)nc2C2CC2)n1 (stereo partly drawn) [GS-069, 5-(((trans-3-(3-Cyclopropyl-4-(6-ethylpyridin-2-yl)-1H-pyrazol-1-yl)cyclobutyl)methyl)amino)-2-(2,6-dioxopiperidin-3-yl)isoindoline-1,3-dione] | 10 to 100 nM | < 10 nM | 100 to 1000 nM | 10 to 100 nM | – | – | – | –
14 | O=C1CCC(N2C(=O)c3ccc(NCCC[C@H]4C[C@H](n5cc(-c6ncccc6Cl)c(C6CC6)n5)C4)cc3C2=O)C(=O)N1 (stereo partly drawn) [GS-070, 5-((3-(trans-3-(4-(3-chloropyridin-2-yl)-3-cyclopropyl-1H-pyrazol-1-yl)cyclobutyl)propyl)amino)-2-(2,6-dioxopiperidin-3-yl)isoindoline-1,3-dione] | 10 to 100 nM | < 10 nM | 100 to 1000 nM | < 10 nM | – | – | – | –
15 | Cc1cccc(-c2cn([C@H]3C[C@H](CNc4ccc5c(c4)C(=O)N(C4CCC(=O)NC4=O)C5=O)C3)nc2C2CCOCC2)n1 (stereo partly drawn) [GS-071, 2-(2,6-Dioxopiperidin-3-yl)-5-(((trans-3-(4-(6-methylpyridin-2-yl)-3-(tetrahydro-2H-pyran-4-yl)-1H-pyrazol-1-yl)cyclobutyl)methyl)amino)isoindoline-1,3-dione] | > 1000 nM | 10 to 100 nM | > 1000 nM | 10 to 100 nM | – | – | – | –
16 | O=C1CCC(N2Cc3cc(Nc4ccnc(Nc5ccc6c(c5)CC(N5CCC(n7cc(-c8cnc9cccc(Br)c9n8)cn7)CC5)C6)n4)ccc3C2=O)C(=O)N1 (stereo not drawn) [GS-072, 3-(5-((2-((2-(4-(4-(8-Bromoquinoxalin-2-yl)-1H-pyrazol-1-yl)piperidin-1-yl)-2,3-dihydro-1H-inden-5-yl)amino)pyrimidin-4-yl)amino)-1-oxoisoindolin-2-yl)piperidine-2,6-dione] | > 1000 nM | 100 to 1000 nM | > 1000 nM | 100 to 1000 nM | – | – | – | –
17 | O=C1CCC(N2Cc3cc(Nc4ccnc(Nc5ccc6c(c5)CC(N5CCC(n7cc(-c8cnc9ccccc9n8)cn7)CC5)C6)n4)ccc3C2=O)C(=O)N1 (stereo not drawn) [GS-073, 3-(1-Oxo-5-((2-((2-(4-(4-(quinoxalin-2-yl)-1H-pyrazol-1-yl)piperidin-1-yl)-2,3-dihydro-1H-inden-5-yl)amino)pyrimidin-4-yl)amino)isoindolin-2-yl)piperidine-2,6-dione] | 100 to 1000 nM | 10 to 100 nM | 100 to 1000 nM | 100 to 1000 nM | – | – | – | –
18 | O=C1CCC(N2Cc3c(Nc4ccnc(N5CCC(N6CCC(n7cc(-c8cnc9ccccc9n8)cn7)CC6)C5)n4)cccc3C2=O)C(=O)N1 (stereo not drawn) [GS-074, 3-(1-Oxo-4-((2-(3-(4-(4-(quinoxalin-2-yl)-1H-pyrazol-1-yl)piperidin-1-yl)pyrrolidin-1-yl)pyrimidin-4-yl)amino)isoindolin-2-yl)piperidine-2,6-dione] | > 1000 nM | > 1000 nM | > 1000 nM | > 1000 nM | – | – | – | –
19 | O=C1CCC(N2Cc3c(Nc4ccnc(Nc5cccc(N6CCC(c7ccccc7)CC6)c5)n4)cccc3C2=O)C(=O)N1 (stereo not drawn) [GS-075] | 100 to 1000 nM | 10 to 100 nM | 100 to 1000 nM | 10 to 100 nM | – | – | – | –
20 | O=C1CCC(N2Cc3c(Nc4ccnc(Nc5cccc(N6CCN(c7ccccn7)CC6)c5)n4)cccc3C2=O)C(=O)N1 (stereo not drawn) [GS-076, 3-(1-Oxo-4-((2-((3-(4-(pyridin-2-yl)piperazin-1-yl)phenyl)amino)pyrimidin-4-yl)amino)isoindolin-2-yl)piperidine-2,6-dione] | 10 to 100 nM | < 10 nM | 10 to 100 nM | < 10 nM | – | – | – | –
21 | O=C1CCC(N2Cc3c(Nc4ccnc(Nc5cccc(N6CCC(c7ccccn7)CC6)c5)n4)cccc3C2=O)C(=O)N1 (stereo not drawn) [GS-077, 3-(1-Oxo-4-((2-((3-(4-(pyridin-2-yl)piperidin-1-yl)phenyl)amino)pyrimidin-4-yl)amino)isoindolin-2-yl)piperidine-2,6-dione] | < 10 nM | < 10 nM | 10 to 100 nM | < 10 nM | – | – | – | –
